These results are taken from patent US8063104B2, “Guanidine derivatives as inhibitors of DDAH” (UCL Business PLC, priority 2004, dated 2011).

Series [1] in a line: In vivo study: serum dimethylarginine levels after i.v. bolus. The settings on record: 4 hours after 60 mg/kg i.v. bolus, control 1.81 ± 0.23. Also on record: species or system Male Wistar rats. How it is done:
Male Wistar rats (250-300 g; Charles River, Margate, Kent, UK) were anaesthetised using Isoflurane. The jugular vein was cannulated. Animals were injected intravenously with a bolus dose of inhibitor (60 mg/kg) or saline. Anaesthesia was maintained for 4 hours at the end of which blood was obtained via cardiac puncture for the determination of serum dimethylarginine levels. [All animals received care in compliance with The British Home Office Regulations and Principles of Laboratory Animal Care. (Project licenses PPL/5344, PPL/4824, PPL 70/5580)]
SDMA is not a substrate for DDAH and the levels of SDMA would be expected to be the same of the treated and the control animals, and this was the case. Since there is a great deal of variability of the “normal” ADMA and SDMA level, it is useful to measure the ratio of ADMA and SDMA in each animal to provide a reliable indicator of the relative changes of these to substances.

For series [2], the system named is rat aortic rings. As to the kind of experiment: NOx production from endotoxin-treated rat aortic rings in static culture. Format: cell-based. The settings on record: endotoxin 10 μg/ml, compound 500 μM. How it is done:
FIG. 1 is a graph showing the nitrate and nitrite (NOx) production from isolated rat aortic rings in static culture in the presence of either media alone (untreated); media plus 10 μg/ml LPS (LPS) and media plus 10 μg/ml LPS and 500 μM SR257 or SR291. n≧6; *p<0.0001 One Way ANOVA plus Bonferroni post hoc correction;
Effects of two compounds SR 291 [N^G-(2-methoxyethyl)-L-arginine methyl ester] and SR 257 [N^G-(2-methoxyethyl)-L-arginine]) have been tested in a series of models of endotoxin-induced vascular dysfunction. Treatment of rat aortic vascular rings in static culture with endotoxin (10 μg/ml) led to an increase in generation of nitric oxide (as measured by nitrite and nitrate). This increase in NO was prevented by treatment with 500 μM SR257 or SR291.

In a further series the target is T1, iNOS (Mus musculus, UniProt P29477).
T1 construct: endogenous in cells; host or cells: RAW cells stimulated with LPS/IFN and TNF
As to the kind of experiment: iNOS activity Greiss assay in stimulated RAW cells. The conditions noted are these: Griess NOx, RAW cells stimulated 24 h with LPS/IFN and TNF, compound 0.5 mM, 550 nm; control 0.367 ± 0.021. Format: cell-based. How it is done:
RAW cells were stimulated for 24 h with LPS/IFN and TNF, in the presence of the DDAH inhibitor compounds (0.5 mM). Levels of NOx secreted into the media by the cells were determined by Griess assay: Greiss reagent [1:1 sulfanilamide ([…]) in ortho-phosphoric acid (50%) and N-(1-napthyl)ethylenediamine dihydrochloride (1%)] was added as 100 μl volume to 100 μl cell culture media and the plate was read at 550 nm and analysed in relation to sodium nitrite and nitrate standards.

The test system of series [3] is rat aortic rings. As to the kind of experiment: Endotoxin-induced hyporeactivity to vasoconstrictors in rat aortic rings. Format: cell-based. The conditions noted are these: endotoxin 0.3 μg/ml, compound 100 μM and 200 μM. How it is done:
Incubation of rat aortic rings with endotoxin (0.3 μg/ml) led to the development of hyporeactivity to vasoconstrictors.

Another series concerns RAW cells. Kind of series: Cell viability assay (MTT) in RAW cells.
A further series addresses T2, DDAH (Rattus norvegicus, UniProt O08557).
T2 construct: Rat kidney was homogenized in PBS; from tissue; host or cells: rat kidney homogenate, high-speed supernatant
Kind of series: DDAH activity assay (rat kidney lysate, [14C]L-NMMA to [14C]citrulline). Format: biochemical. The settings on record: 1 mM compound, [14C]L-NMMA 1 μmol/L, 1 h 37° C. How it is done: Rat kidney was homogenized in PBS containing PMSF 1 mM, leupeptin 5 μg/ml, pepstatin 5 μg/ml, chymostatin 5 μg/ml, and the lysate was centrifuged (4000 rpm. 20 min then supernatant further centrifuged for 40000 rpm, 30 min, 4° C.). The supernatants were analyzed for DDAH activity; [^14[…]) was added to the cell lysates (final volume 100 μl) and incubated for 1 h at 37° C. Dowex resin (0.5 ml) at neutral pH was immediately added to samples to terminate the reaction and bind unmetabolized L-NMMA. [^14C]Citrulline formation was determined by scintillation counting (Hewlett Packard).

A further series relates to eNOS. Kind of series: eNOS assay ([14C]arginine conversion). Format: biochemical. The conditions noted are these: eNOS activity. How it is done:
Compounds to be tested were added to NOS assay buffer (HEPES 50 mM pH 7.2, FAD 5 μM, FMN 5 μM, BH4 10 μM, NADPH 1 mM, DTT 0.5 mM, CaCl2 1 mM, MgCl2 1 mM, calmodulin 50 nM, [^14C] arginine 100 μM) in a final volume of 100 μl and the reaction was initiated by addition of eNOS (eNOS 3.3. U/reaction, Alexis Biochemicals). Reactions were incubated for 1 h at 37° C. and the reaction was terminated by the addition of Dowex pH 5.5 (0.85 ml) to each tube. Tubes were vortexed and microfuged <12000 g, 5 min. 100 μl of the Dowex supernatant was added to 5 ml scintillation cocktail and was counted in a scintillation counter (Hewlett Packard). The compounds were tested at 1 mM and 0.1 mM concentrations. Activity is expressed as % of control where control contained no inhibitor, n=4. The DDAH inhibitors of the present invention tested had no significant effect on eNOS activity.

The term inhibition denotes the relative decrease from the control value, in per cent.

The structures appear in SMILES notation. Where two headings read alike, the source gives them in different places.

T2 sequence (O08557 2-285 limits assumed): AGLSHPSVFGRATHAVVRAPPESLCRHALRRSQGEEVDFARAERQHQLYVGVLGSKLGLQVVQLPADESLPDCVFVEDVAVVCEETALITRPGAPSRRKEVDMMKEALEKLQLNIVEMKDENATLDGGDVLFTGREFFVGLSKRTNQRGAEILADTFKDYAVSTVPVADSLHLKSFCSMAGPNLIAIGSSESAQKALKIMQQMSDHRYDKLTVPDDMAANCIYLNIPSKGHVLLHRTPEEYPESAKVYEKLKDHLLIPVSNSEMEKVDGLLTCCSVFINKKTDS

In the case of `COCCN=C(N)NCCCC(N)C(=O)O` [Example 21, N^G-(2-methoxyethyl)-L-arginine], the “ADMA:SDMA ± sd” value in series [1] amounted to 3.50 ± 0.48. The “endotoxin-induced increase in NO (nitrite and nitrate)” value with rat aortic rings [2] is reported as “prevented”. In addition, the “OD units drug ± sd” value at iNOS is recorded as 0.326 ± 0.014 OD units; in the series with RAW cells (MTT, RAW cells, compound 0.5 mM, 24 h, OD550 nm, control 2.54 ± 0.26), 2.15 ± 0.13 OD units. In the series with rat aortic rings [3], the “endotoxin-induced hyporeactivity to vasoconstrictors” value is reported as “reversed dose dependently”. This compound had an inhibition at 1000 µM against DDAH of 100%. The “% of control ± sd” value was 96.84 ± 30.49 [2] % of control in the series with eNOS (0.1 mM compound) and 84.81 ± 22.74 [4] % of control in the series on eNOS (1 mM compound).

`COCCN=C(N)NCC[C@H](N)C(=O)OC` [Example 22, (S)-2-Amino-4-(N′-(2-methoxyethyl)guanidino)butanoic acid methyl ester]: the figures for the “OD units drug ± sd” value on iNOS and with RAW cells were 0.329 ± 0.013 OD units and 2.33 ± 0.19 OD units, respectively. The same compound had an inhibition at 1000 µM against DDAH of 75%. For the same compound, the results for the “% of control ± sd” value in the series on eNOS (0.1 mM compound) and in the series with eNOS (1 mM compound) were 87.23 ± 18.05 [2] % of control and 84.05 ± 8.09 [4] % of control, respectively.
